Experimental data published in publication PMC12596218 (Journal of Lipid Research, 2025).

T1: SOAT (Homo sapiens, UniProt Q3KNW5)
T1 construct: stably transfected with the full open reading frames of human NTCP, ASBT, SOAT, OATP1B1, OATP1B3, OATP2B1, and murine Asbt (mAsbt); expressed in transfected cells; host or cells: HEK293 (Flp-In), stably transfected, tetracycline-induced
T1 sequence (Q3KNW5 1-377): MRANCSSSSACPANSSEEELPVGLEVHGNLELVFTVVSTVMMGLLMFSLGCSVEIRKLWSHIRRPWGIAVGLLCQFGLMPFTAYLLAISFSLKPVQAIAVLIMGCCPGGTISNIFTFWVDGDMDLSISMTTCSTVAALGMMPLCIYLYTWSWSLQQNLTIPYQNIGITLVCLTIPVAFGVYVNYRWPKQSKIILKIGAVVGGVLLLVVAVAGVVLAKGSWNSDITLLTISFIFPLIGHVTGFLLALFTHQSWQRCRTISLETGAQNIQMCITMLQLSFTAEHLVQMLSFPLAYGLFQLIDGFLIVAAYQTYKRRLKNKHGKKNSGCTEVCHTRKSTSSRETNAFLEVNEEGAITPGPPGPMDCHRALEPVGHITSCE

T2: ASBT (Homo sapiens, UniProt Q12908)
T2 construct: stably transfected with the full open reading frames of human NTCP, ASBT, SOAT, OATP1B1, OATP1B3, OATP2B1, and murine Asbt (mAsbt); expressed in transfected cells; host or cells: HEK293 (Flp-In), stably transfected, tetracycline-induced
T2 sequence (Q12908 1-348): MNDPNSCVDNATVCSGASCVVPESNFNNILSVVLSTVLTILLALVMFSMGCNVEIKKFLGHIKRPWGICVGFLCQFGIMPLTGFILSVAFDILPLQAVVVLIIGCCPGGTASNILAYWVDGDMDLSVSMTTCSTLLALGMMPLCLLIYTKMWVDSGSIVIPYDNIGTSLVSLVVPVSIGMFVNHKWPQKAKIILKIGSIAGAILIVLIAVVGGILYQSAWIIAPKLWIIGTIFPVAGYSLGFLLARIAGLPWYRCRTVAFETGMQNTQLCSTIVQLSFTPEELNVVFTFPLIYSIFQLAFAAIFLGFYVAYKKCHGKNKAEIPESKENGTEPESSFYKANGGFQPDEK


Tests used:
[1] = molecular target: T1, SOAT; test: [3H]DHEAS transport inhibition assay in SOAT-HEK293 cells; assay type: cell-based; settings: inhibitor at 100 μM, 1 μM [3H]DHEAS, 10 min
Source text: (§1) Human embryonic kidney HEK293 cells, stably transfected with the full open reading frames of human NTCP, ASBT, SOAT, OATP1B1, OATP1B3, OATP2B1, and murine Asbt (mAsbt) were used as reported ([18], [20], [21], [22], [23]). The NTCP, ASBT, and mAsbt constructs were C-terminally tagged with the FLAG epitope, and the SOAT construct was C-terminally tagged with green fluorescent protein. Non-transfected Flp-In HEK293 cells (Thermo Fisher Scientific) served as the control. All cell lines were maintained at 37°C, 5% CO2 and 95% humidity in DMEM/F-12 medium (Thermo Fisher Scientific) supplemented with 10% fetal calf serum (Sigma-Aldrich), 4 mM L-glutamine (PAA) and penicillin/streptomycin (PAA). Expression of the respective carrier protein was induced by tetracycline treatment at 1 μg/ml (Carl Roth GmbH + Co. KG).
(§2) Cells were seeded onto poly-L-lysine-coated 96-well plates, induced with 1 μg/ml tetracycline, and grown to confluence over 72 h at 37°C. Then, cells were washed with tempered (37°C) phosphate-buffered saline (PBS, containing 137.0 mM NaCl, 2.7 mM KCl, 1.5 mM KH2PO4, and 7.3 mM Na2HPO4, at pH 7.4) and preincubated with 80 μl sodium transport buffer (STB, containing 142.9 mM NaCl, 4.7 mM KCl, 1.2 mM MgSO4, 1.2 mM KH2PO4, 1.8 mM CaCl2, and 20.0 mM HEPES, at pH 7.4) for 5 min at 37°C. For inhibition studies, the medium was replaced by 80 μl STB containing the respective inhibitor or solvent alone and cells were further incubated for 5 min at 37°C. Transport experiments were started by adding 20 μl of a 5-fold concentrated substrate solution (solved in STB). For transport experiments under sodium-free conditions the same buffer composition was used as for STB, but sodium chloride was substituted with equimolar concentrations of choline chloride as previously reported ([20], [24]). Transport experiments were stopped by washing twice with ice-cold PBS and the plates were kept cool on ice until adding the lysis buffer [1% sodium dodecyl sulfate (SDS) and 1 N NaOH]. Then, the cell-associated radioactivity of the respective tritium-labeled substrate or ligand was quantified by liquid scintillation counting using MicroScint-20 scintillation cocktail (Revvity) in a Packard Microplate Scintillation Counter TopCount NXT (Packard Instrument Company). For IC50 transport inhibition measurements, the mean uptake values measured in non-carrier-expressing HEK293 control cells were defined as 0% uptake control and were subtracted from all other values. Values from cells without inhibitor and solvent alone were set to 100%. Finally, all net transport data were expressed as uptake or binding as % of control. All transport or inhibition graphs were generated with GraphPad Prism 6 (GraphPad). Determination of half maximal inhibitory concentrations (IC50) was done by nonlinear regression analysis using the equation log (inhibitor) versus response—variable slope settings. All data points of the IC50 curves represent means ± SD of quadruplicate determinations. For Km measurements, BS uptake in the absence of sodium was regarded as carrier-independent unspecific uptake and was subtracted from the transport rates in the presence of sodium to obtain carrier-specific uptake rates (indicated as dashed lines). From the specific uptake rates, Michaelis Menten Km values were calculated by non-linear regression analysis.

[2] = molecular target: T2, ASBT; test: Transport inhibition and recovery assay (inhibitor washout) in ASBT-HEK293 cells; assay type: cell-based; settings: 100 μM inhibitor 5 min, 240 min recovery
Description: HEK293 cells stably expressing ASBT were seeded onto poly-L-lysine-coated 96-well plates, induced with 1 μg/ml tetracycline, and grown to confluence over 72 h at 37°C. Non-carrier-expressing HEK293 cells were used as control. Then, cells were washed with tempered (37°C) PBS and equilibrated for 5 min with STB. […] After inhibitor preincubation, cells were washed with tempered (37°C) PBS and further incubated in inhibitor-free DMEM (Thermo Fisher Scientific) for 30, 60, 120, or 240 min at 37°C. […] Finally, cell associated radioactivity was determined using the MicroBeta2 liquid scintillation counter (Revvity). For each inhibitor, the mean values from noncarrier-expressing HEK293 cells were set to 0% and transport measurements in the absence of inhibitor (solvent control) were set to 100%.
In the second setup, the inhibitor was thoroughly washed out after the preincubation phase and cells were placed on inhibitor-free medium for different time intervals of 0–240 min (indicated by “recovery time” in Fig. 7A).

[3] = molecular target: T2, ASBT; test: as above; assay type: cell-based; settings: 100 μM inhibitor, 5 min preincubation, 1 μM [3H]TC
[4] = molecular target: T2, ASBT; test: [3H]TC transport and inhibition assay in ASBT-HEK293 cells; assay type: cell-based; settings: inhibitor at 100 μM, 1 μM [3H]TC, 10 min
Source text: as §1, §2

[5] = molecular target: mAsbt; settings: ref 42 Hallén et al. (2002); read-out: Ki mAsbt inhibition; cited from earlier work
[6] = tested on: mAsbt; test: mAsbt inhibition and TC transport by Hallén et al. (2002); assay type: cell-based, mouse; settings: from Ki values of ref 42
[7] = substrate: C[C@H](CCC(=O)NCCS(=O)(=O)O)[C@H]1CC[C@H]2[C@@H]3[C@H](O)C[C@@H]4C[C@H](O)CC[C@]4(C)[C@H]3C[C@H](O)[C@]12C; test: cells, lysate or membranes; settings: other: sodium-dependent specific uptake, initial linear phase, pH 7.4

Molecule | Km ([7]; 37.0 °C) [µM] | Km [7] [µM] | other results
Cc1c(C)c2c(c(C)c1O)CCC(C)(COc1ccc(CC3SC(=O)NC3=O)cc1)O2 (stereo not drawn) [troglitazone] |  |  | Inhibition of SOAT [3H]DHEAS transport [1]: significantly inhibited; ASBT recovery after washout and 240 min in inhibitor-free medium [2]: only partial recovery; ASBT inhibition with inhibitor present during uptake (inhibitor + [3H]TC) [3]: nearly complete ASBT inhibition; Inhibition of ASBT [3H]TC transport [4]: significantly inhibited
CCCC[C@]1(CC)CS(=O)(=O)c2ccccc2[C@@H](c2ccccc2)N1 [2164U90] |  |  | Ki [5]: 68 nM; Difference in inhibitor potency mAsbt versus ASBT [6]: 150 fold
murine Asbt (mAsbt) (Mus musculus) (protein) MDNSSVCPPNATVCEGDSCVVPESNFNAILNTVMSTVLTILLAMVMFSMGCNVEVHKFLGHIKRPWGIFVGFLCQFGIMPLTGFILSVASGILPVQAVVVLIMGCCPGGTGSNILAYWIDGDMDLSVSMTTCSTLLALGMMPLCLFVYTKMWVDSGTIVIPYDSIGISLVALVIPVSFGMFVNHKWPQKAKIILKIGSITGVILIVLIAVIGGILYQSAWIIEPKLWIIGTIFPIAGYSLGFFLARLAGQPWYRCRTVALETGMQNTQLCSTIVQLSFSPEDLNLVFTFPLIYTVFQLVFAAVILGIYVTYRKCYGKNDAEFLEKTDNEMDSRPSFDETNKGFQPDEK | 272.3 |  | 
ASBT (Homo sapiens) (protein) MNDPNSCVDNATVCSGASCVVPESNFNNILSVVLSTVLTILLALVMFSMGCNVEIKKFLGHIKRPWGICVGFLCQFGIMPLTGFILSVAFDILPLQAVVVLIIGCCPGGTASNILAYWVDGDMDLSVSMTTCSTLLALGMMPLCLLIYTKMWVDSGSIVIPYDNIGTSLVSLVVPVSIGMFVNHKWPQKAKIILKIGSIAGAILIVLIAVVGGILYQSAWIIAPKLWIIGTIFPVAGYSLGFLLARIAGLPWYRCRTVAFETGMQNTQLCSTIVQLSFTPEELNVVFTFPLIYSIFQLAFAAIFLGFYVAYKKCHGKNKAEIPESKENGTEPESSFYKANGGFQPDEK | 46.0 |  | 
ASBT S294T/I295V (ASBT→mAsbt) (Homo sapiens; I295V/S294T) (protein) MNDPNSCVDNATVCSGASCVVPESNFNNILSVVLSTVLTILLALVMFSMGCNVEIKKFLGHIKRPWGICVGFLCQFGIMPLTGFILSVAFDILPLQAVVVLIIGCCPGGTASNILAYWVDGDMDLSVSMTTCSTLLALGMMPLCLLIYTKMWVDSGSIVIPYDNIGTSLVSLVVPVSIGMFVNHKWPQKAKIILKIGSIAGAILIVLIAVVGGILYQSAWIIAPKLWIIGTIFPVAGYSLGFLLARIAGLPWYRCRTVAFETGMQNTQLCSTIVQLSFTPEELNVVFTFPLIYTVFQLAFAAIFLGFYVAYKKCHGKNKAEIPESKENGTEPESSFYKANGGFQPDEK |  | 25.9 | 
NTCP (Homo sapiens) (protein) MEAHNASAPFNFTLPPNFGKRPTDLALSVILVFMLFFIMLSLGCTMEFSKIKAHLWKPKGLAIALVAQYGIMPLTAFVLGKVFRLKNIEALAILVCGCSPGGNLSNVFSLAMKGDMNLSIVMTTCSTFCALGMMPLLLYIYSRGIYDGDLKDKVPYKGIVISLVLVLIPCTIGIVLKSKRPQYMRYVIKGGMIIILLCSVAVTVLSAINVGKSIMFAMTPLLIATSSLMPFIGFLLGYVLSALFCLNGRCRRTVSMETGCQNVQLCSTILNVAFPPEVIGPLFFFPLLYMIFQLGEGLLLIAIFWCYEKFKTPKDKTKMIYTAATTEETIPGALGNGTYKGEDCSPCTA | 90.9 |  | 
NTCP M290T/I291V (NTCP→mAsbt) (Homo sapiens; I291V/M290T) (protein) MEAHNASAPFNFTLPPNFGKRPTDLALSVILVFMLFFIMLSLGCTMEFSKIKAHLWKPKGLAIALVAQYGIMPLTAFVLGKVFRLKNIEALAILVCGCSPGGNLSNVFSLAMKGDMNLSIVMTTCSTFCALGMMPLLLYIYSRGIYDGDLKDKVPYKGIVISLVLVLIPCTIGIVLKSKRPQYMRYVIKGGMIIILLCSVAVTVLSAINVGKSIMFAMTPLLIATSSLMPFIGFLLGYVLSALFCLNGRCRRTVSMETGCQNVQLCSTILNVAFPPEVIGPLFFFPLLYTVFQLGEGLLLIAIFWCYEKFKTPKDKTKMIYTAATTEETIPGALGNGTYKGEDCSPCTA |  | 69.5 | 
NTCP M290S (NTCP→ASBT) (Homo sapiens; M290S) (protein) MEAHNASAPFNFTLPPNFGKRPTDLALSVILVFMLFFIMLSLGCTMEFSKIKAHLWKPKGLAIALVAQYGIMPLTAFVLGKVFRLKNIEALAILVCGCSPGGNLSNVFSLAMKGDMNLSIVMTTCSTFCALGMMPLLLYIYSRGIYDGDLKDKVPYKGIVISLVLVLIPCTIGIVLKSKRPQYMRYVIKGGMIIILLCSVAVTVLSAINVGKSIMFAMTPLLIATSSLMPFIGFLLGYVLSALFCLNGRCRRTVSMETGCQNVQLCSTILNVAFPPEVIGPLFFFPLLYSIFQLGEGLLLIAIFWCYEKFKTPKDKTKMIYTAATTEETIPGALGNGTYKGEDCSPCTA |  | 15.9 | 
